Holding throughout (format): in vivo, Wistar rats
For experiment [1], the system named is ICV colchicine-induced dementia rats. In words: Locomotor activity (photoactometer), colchicine-induced dementia. The note with it: colchicine model, Mean ± SEM, photo beam counts for 5 min. The procedure:
(§1) In the chronic model, the rats were trained for MWM and PAT tasks for the first 4 days followed by intracerebroventricular (i.c.v.) administration of colchicine on day 6. After establishing dementia on day 10 of the colchicine administration, the drug treatment was initiated from day 11 to 24. The effects of different drug treatments on dementia were assessed on days 14 and 21. On these particular days, the swim test was performed 15 min after the administration of different treatments and escape latencies; residence time and peripheral swim time were recorded (Nampoothiri [2017]). The retention trials for PAT on day 17 and 23 were performed on days 17 and 23, 15 min after the administration of the drug.
On the 6th day, surgery was performed as described (Bokare et al. [2018]). Rat was anesthetized with sodium pentobarbital (45 mg/kg, i.p.) and positioned in stereotaxic apparatus. The head was positioned in a frame, and a midline sagittal incision was made in the scalp. […]
Locomotor activity was assessed in animals using a digital photoactometer (INCO, India) which contains a cage that is 30-cm long and 30-cm deep with a wire mesh at the bottom. […] Then, the ambulatory movements were recorded for 5 min and expressed in terms of total photo beam counts for 5 min per animal.

For experiment [2] the test system is unchanged. In words: Passive avoidance test, ICV colchicine-induced dementia (chronic model). Particulars: for Retention test, Latency time, 1st / Retention test, No. of crossings, 1st / Retention test, Time spent in darker chamber, 1st: 1st retention test, before colchicine administration; for Retention test, Latency time, 2nd / Retention test, No. of crossings, 2nd / Retention test, Time spent in darker chamber, 2nd: 2nd retention test, day 17; for Retention test, No. of crossings, 3rd / Retention test, Latency time, 3rd / Retention test, Time spent in darker chamber, 3rd: 3rd retention test, day 23; for Acquisition test, 2nd day: colchicine model. The method, then:
as §1
(§2) On the 6th day, surgery was performed as described (Bokare et al. [2018]). Rat was anesthetized with sodium pentobarbital (45 mg/kg, i.p.) and positioned in stereotaxic apparatus. The head was positioned in a frame, and a midline sagittal incision was made in the scalp. Two holes were drilled through the skull at coordinates (0.8 mm posterior to bregma, 1.8 mm lateral to the sagittal suture, and 3.6 mm beneath the cortical surface) to place the injection cannula. Rats were intracerebroventricularly infused with either artificial cerebrospinal fluid (ACSF; in mM: 147 NaCl, 2.9 KCl, 1.6 MgCl2, 1.7 CaCl2, and 2.2 dextrose) or 15 µg of colchicine in 5 µL ACSF using a Hamilton microsyringe positioned in the injection cannula. To promote back diffusion, the microsyringe was left in place for 2 min following injection. The scalp was then closed with a suture. After surgery, all animals received gentamicin (5 mg/kg, i.p.) to prevent sepsis. Special care was taken during the postoperative period to provide food and water inside the cage of the rat. In sham-operated rats, surgery was identical except for injection of the solution.
The passive avoidance apparatus consists of a larger illuminated compartment and a smaller dark compartment. Each consists of a square box, with a floor grid of 50 × 50 cm and wooden walls of 35-cm height in larger compartment. Larger box was illuminated by 15 W Philips CFL lamp. A smaller dark compartment of 15 × 15 cm with an electrified floor is connected to a constant current stimulator. An opening 6 × 6 cm in between the two compartments was closed using a transparent plexiglass sliding door. The test procedure was carried out in three phases, exploration, learning, and retention (Praveenkumar [2019]).
First day, the animal was placed in the center of the illuminated larger compartment facing away from the entrance to the small darker compartment and allowed to explore the apparatus, i.e., both compartments for 3 min. Total time spent in the larger and smaller compartments and the number of crossings (from larger to smaller compartments and vice versa; a measure of exploratory behavior) were noted. On the second day, animal was placed in the illuminated larger compartment facing away from the entrance to the darker compartment. Once the animal entered the darker compartment, the entrance to the larger compartment was closed, and three strong electric foot shocks (50 Hz, 0.5 mA, 2 s) with 10-s intervals were applied. On the third day, rats were placed in the illuminated larger compartment and allowed to explore both the compartments for 3 min. The parameters assessed are latency time to enter into darker compartment, time spent in the darker and brighter compartments, and the number of crossings between the compartments.

Experiment [3] has the same test system. In words: Morris water maze test, ICV colchicine-induced dementia (chronic model). Particulars: Mean ± SEM; for Escape latency, 14th day / Escape latency, 21st day: colchicine 15 µg ICV; for Escape latency, Probe day: colchicine model. The method, then:
as §1, §2
A modified Morris water maze test was used (Nampoothiri [2017]). The pool was positioned in the middle of a dimly lit testing room with distant visual clues that could be used by rats for spatial orientation. The maze consisted of a circular water pool (140 × 45 cm) divided into four equally sized quadrants (NE, SE, SW, and NW) by two imaginary diagonal lines running across the center of the pool. The pool was filled with water maintained at a temperature of 23 ± 2 °C. In the NE quadrant (target quadrant) equidistant from the center and edge of the pool, a platform of 25-cm height and 10-cm diameter was invisibly placed submerged 1 cm below the water surface. Rats were gently placed in each quadrant facing the wall and trained to locate the hidden black platform, and the trial was terminated when the rat reached the platform or after 60 s. Accordingly, rats were subjected to one session of four trials per day for four consecutive days. All rats were left on the platform for 30 s and then removed and towel dried. Inter-trial interval was kept a constant 180 s throughout the study. In the probe trial, platform was removed, and rats were allowed to swim for a 60-s trial period. Data was collected in the form of escape latencies to find the platform; percent of time spent over the target quadrant.

For `CCN(C)C(=O)Oc1cccc([C@H](C)N(C)C)c1` [INRSM, rivastigmine], the Score on actophotometer in experiment [1] (listed as COL + INRSM) stood at 265.66 ± 17.95. For the same compound, in experiment [2] (listed as COL + INRSM), the “Retention test, Latency time, 1st” value amounted to 122.3 ± 13.32 s; the “Retention test, No. of crossings, 1st” value was determined as 2.67±0.56; the “Retention test, Time spent in darker chamber, 1st” value stood at 49.5 ± 12.13 s; the “Retention test, Latency time, 2nd” value was determined as 101.8 ± 10.46 s. Moreover, in experiment [2] (listed as COL + INRSM), the “Retention test, No. of crossings, 2nd” value is 3.50±0.56; the “Retention test, Time spent in darker chamber, 2nd” value worked out at 58.67 ± 10.25 s; the “Retention test, Latency time, 3rd” value turned out to be 77.17 ± 11.18 s; the “Retention test, Time spent in darker chamber, 3rd” value came out at 67.17 ± 12.43 s. Moreover, in experiment [2] (listed as COL + INRSM), the “Acquisition test, 2nd day” value is recorded as 11.07 ± 2.195. Further, in experiment [2], the “Retention test, No. of crossings, 3rd” value is reported as 3.17±0.48. In addition, in experiment [3] (listed as COL + INRSM), the “Escape latency, 14th day” value was 5.28 ± 0.7425 s; the “Escape latency, 21st day” value is given as 4.67 ± 0.3849 c s; the “Escape latency, Probe day” value came to 3.28 ± 0.5800 s.
Take `CCN(C)C(=O)Oc1cccc([C@H](C)N(C)C)c1` [ORSM, rivastigmine]: the Score on actophotometer in experiment [1] (listed as COL + ORSM) was 240.00 ± 19.54. Further, in experiment [2] (listed as COL + ORSM), the “Retention test, Latency time, 1st” value turned out to be 127.8 ± 21.13 s; the “Retention test, No. of crossings, 1st” value was 1.83±0.54; the “Retention test, Time spent in darker chamber, 1st” value amounted to 38.5 ± 16.47 s; the “Retention test, Latency time, 2nd” value was 90.55 ± 22.83 s. Moreover, in experiment [2] (listed as COL + ORSM), the “Retention test, No. of crossings, 2nd” value is on record as 3.00±0.63; the “Retention test, Time spent in darker chamber, 2nd” value came to 68 ± 23.51 s; the “Retention test, Latency time, 3rd” value came to 48.83 ± 8.28 s; the “Retention test, Time spent in darker chamber, 3rd” value was 81.33 ± 10.56 s. For the same compound, the “Acquisition test, 2nd day” value in experiment [2] (listed as COL + ORSM) was determined as 8.91 ± 2.049. Also, in experiment [2], the “Retention test, No. of crossings, 3rd” value was 3.17±0.48. Further, in experiment [3] (listed as COL + ORSM), the “Escape latency, 14th day” value was found to be 5.89 ± 0.7027 s; the “Escape latency, 21st day” value is listed as 5.28 ± 0.3809 c s; the “Escape latency, Probe day” value is listed as 2.83 ± 0.3181 s.

For the origin of these results see article PMC8298375 (Naunyn-Schmiedeberg's Archives of Pharmacology, 2021).
